Data as given in ChEMBL document CHEMBL4808164, “Giffonins, Antioxidant Diarylheptanoids from Corylus avellana, and Their Ability to Prevent Oxidative Changes in Human Plasma Proteins” (J Nat Prod, 2021).
Activity calls are given as the source filed them. No cut-off for these calls is given here.

Columns and labels:
Plasma [1] = test: Antioxidant activity in human plasma protein assessed as reduction of H2O2/Fe2+-induced plasma protein carbonylation at 10 uM incubated for 30 mins; assay type: functional
Plasma [2] = test: Effect on autoxidation of thiol group in human plasma protein at 0.1 to 100 uM by Ellman reagent based spectrophotometry; assay type: ADME, cell-free; settings: dose 0.1-100 µM
Plasma [3] = test: Effect on auto-carbonylation of human plasma protein at 0.1 to 100 uM; assay type: ADME, cell-free; settings: dose 0.1-100 µM
Plasma [4] = test: Antioxidant activity in human plasma protein assessed as reduction of H2O2-induced plasma protein carbonylation at 10 uM incubated for 30 mins; assay type: functional, cell-free
Plasma [5] = test: Antioxidant activity in human plasma protein assessed as reduction of H2O2/Fe2+-induced oxidation of thiol group at 10 uM incubated for 30 mins by Ellman reagent based spectrophotometry; assay type: functional, cell-free
Plasma [6] = test: Antioxidant activity in human plasma protein assessed as reduction of H2O2-induced oxidation of thiol group at 10 uM incubated for 30 mins by Ellman reagent based spectrophotometry; assay type: functional, cell-free
Plasma [7] = test: Antioxidant activity in human plasma assessed as inhibition of H2O2-induced lipid peroxidation at 10 uM incubated for 30 mins by TBARS assay; assay type: functional, cell-free
Plasma [8] = test: Antioxidant activity in human plasma assessed as inhibition of H2O2/[…]-induced lipid peroxidation at 10 uM incubated for 30 mins by TBARS assay; assay type: functional, cell-free

Row | Structure (SMILES) | Activity (Plasma [1]) | Activity (Plasma [2]) | Activity (Plasma [3]) | Activity (Plasma [4]) | Activity (Plasma [5]) | Activity (Plasma [6]) | inhibition (Plasma [7]) [%] | inhibition (Plasma [8]) [%] | Activity (Plasma [1]; 0.5 h) [%]
1 | O=C1CCc2ccc(O)c(c2)-c2cc(ccc2O)C[C@H](O)[C@@H](O)[C@@H]1O | Active | Non-Toxic | Non-Toxic | Active | Active | Active |  |  | 
2 | O=C1C[C@@H](O)Cc2ccc(O)c(c2)-c2cc(ccc2O)C[C@H](O)[C@H]1O |  |  |  |  |  |  | 6.2 | 4.2 | 
3 | O=C1CCc2ccc(O)c(c2)-c2cc(ccc2O)C[C@H](O[C@@H]2O[C@H](CO)[C@@H](O)[C@H](O)[C@H]2O)C[C@@H]1O |  |  |  |  |  |  | 3.9 | 4.8 | 
4 | O=C1/C=C/CCc2ccc(O)c(c2)-c2cc(ccc2O)CC1 |  | Non-Toxic | Non-Toxic |  | Active | Active |  |  | 
5 | O=C1CCc2ccc(O)c(c2)-c2cc(ccc2O)C[C@H](O)C[C@H]1O | Active | Non-Toxic | Non-Toxic | Active | Active | Active | 44.4 | 34.1 | 
6 | Oc1ccc2cc1-c1cc(ccc1O)C[C@H](O)[C@@H](O)[C@@H](O)C[C@@H](O)C2 |  |  |  |  |  |  | 33.3 | 14.4 | 
7 | COc1c2cc(c(OC)c1O)Oc1ccc(cc1)CCCC[C@@H](O)/C=C\2 | Active | Non-Toxic | Non-Toxic | Active | Active | Active |  |  | 
8 | COc1c2cc(c(OC)c1O)Oc1ccc(cc1)CC[C@@H](O)/C=C/C=C\2 |  | Non-Toxic | Non-Toxic | Active | Active | Active |  |  | 65
9 | COc1cc(/C=C/C(=O)CC(=O)/C=C/c2ccc(O)c(OC)c2)ccc1O |  |  |  |  |  |  | 20.6 | 23.2 | 
10 | O=C1CCc2ccc(O)c(c2)-c2cc(ccc2O)C[C@@H](O)[C@H](O)C1 |  |  |  |  |  |  | 3.9 | 11.2 | 
11 | COc1c2cc(c(OC)c1O)Oc1ccc(cc1)[C@@H](O)C[C@H](O)CC/C=C/2 |  |  |  |  |  |  | 2.7 | 4 | 
12 | O=C1[C@@H](O)Cc2ccc(O)c(c2)-c2cc(ccc2O)C[C@@H](O)[C@H](O)[C@H]1O |  |  |  |  |  |  | 3.8 | 23.9 | 
13 | COc1c(O)cc2cc1Oc1ccc(cc1)CC[C@@H](O)/C=C/C=C\2 | Active | Non-Toxic | Non-Toxic | Active | Active | Active |  |  | 
14 | Oc1ccc2cc1-c1cc(ccc1O)C[C@H](O)[C@H](O)C(O)[C@@H](O)[C@H](O)C2 (some centres undefined) |  |  |  |  |  |  | 33.6 | 10.4 | 
15 | COc1c2cc(c(OC)c1O)Oc1ccc(cc1)CCC(=O)CC/C=C\2 |  | Non-Toxic | Non-Toxic |  | Active | Active |  |  | 
16 | COc1c2cc(c(OC)c1O)Oc1ccc(cc1)[C@@H](O)C[C@H](O)/C=C/C=C/2 |  | Non-Toxic | Non-Toxic | Active | Active | Active | 24.2 | 25.5 | 65
